In ChEMBL document CHEMBL3259580, “New compounds from acid hydrolyzed products of the fruits of Momordica charantia L. and their inhibitory activity against protein tyrosine phosphatas 1B” (Eur J Med Chem, 2014) one finds inhibition data, which are given here for 11 compounds.

Assay [1] deals with T1, Tyrosine-protein phosphatase non-receptor type 1 (Homo sapiens) (UniProt P18031).
T1 sequence (whole entry): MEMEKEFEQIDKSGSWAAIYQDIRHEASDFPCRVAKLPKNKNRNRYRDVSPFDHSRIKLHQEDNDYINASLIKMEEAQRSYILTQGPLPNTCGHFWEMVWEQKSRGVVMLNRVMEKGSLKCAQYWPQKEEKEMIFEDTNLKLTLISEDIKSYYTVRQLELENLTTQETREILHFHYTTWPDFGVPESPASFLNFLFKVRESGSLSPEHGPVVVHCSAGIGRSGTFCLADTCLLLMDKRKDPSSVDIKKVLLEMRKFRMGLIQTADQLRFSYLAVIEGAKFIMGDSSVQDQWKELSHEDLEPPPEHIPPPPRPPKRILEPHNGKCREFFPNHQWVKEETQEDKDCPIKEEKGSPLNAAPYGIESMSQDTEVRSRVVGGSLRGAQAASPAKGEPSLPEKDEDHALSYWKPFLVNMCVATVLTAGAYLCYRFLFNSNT
In words: Inhibition of PTP1B (unknown origin) using para-nitro phenyl phosphate as substrate at 30 uM after 30 mins.

The target of assay [2] is T1, Tyrosine-protein phosphatase non-receptor type 1 (Homo sapiens). In words: Inhibition of PTP1B (unknown origin) using para-nitro phenyl phosphate as substrate at 10 uM after 30 mins.
In assay [3] the target is Tyrosine-protein phosphatase non-receptor type 1 (Homo sapiens) (UniProt P18031). In words: Inhibition of PTP1B (unknown origin) using para-nitro phenyl phosphate as substrate at 20 uM after 30 mins.

For the compound `CO[C@H]1O[C@@]23C=C[C@@H]4[C@]1(CC[C@@]1(C)[C@@H]([C@@H](C)C[C@H](C=C(C)C)OC)CC[C@]41C)[C@@H]2CC[C@H](O)C3(C)C`, the inhibition (usually the drop in the measured response relative to a control, in per cent) in assay [1] turned out to be 77%; in assay [2], 57%.
For the compound `CO[C@@H]1O[C@]23C=C[C@@H]4[C@@]1(CC[C@]1(C)[C@@H]([C@H](C)C[C@H](C=C(C)C)OC)CC[C@@]41C)[C@@H]2CC[C@H](O)C3(C)C`, the results for the inhibition in assay [1] and in assay [2] were 40% and 32%, respectively.
Regarding `C=C(C)/C=C/C[C@@H](C)[C@H]1CC[C@@]2(C)[C@@H]3C=C[C@@]45O[C@@H](OC)[C@]3(CC[C@]12C)[C@@H]4CC[C@H](O)C5(C)C`, the inhibition in assay [1] was 60%; in assay [2], 41%.
For `C[C@H](C/C=C/C(C)(C)O)[C@H]1CC[C@@]2(C)[C@@H]3C=C[C@@]45OC[C@]3(CC[C@]12C)[C@@H]4CC[C@H](O)C5(C)C`, in that order: 52% and 30%.
For the compound `CO[C@@H]1O[C@]23C=C[C@@H]4[C@@]1(CC[C@]1(C)[C@@H]([C@H](C)C/C=C/C(C)(C)O)CC[C@@]41C)[C@@H]2CC[C@H](O)C3(C)C`, the inhibition in assay [2] is -7%.
As to `C=C(C)/C=C/C[C@@H](C)[C@H]1CC[C@@]2(C)[C@@H]3C=C[C@@]45O[C@@H](O)[C@]3(CC[C@]12C)[C@@H]4CC[C@H](O)C5(C)C`, the inhibition worked out at 68% in assay [1] and 44% in assay [2].
As to `CO[C@@H]1O[C@@]23C=C[C@@H]4[C@]1(CC[C@@]1(C)[C@@H]([C@@H](C)C[C@H](C=C(C)C)OC)CC[C@]41C)[C@@H]2CC[C@H](O)C3(C)C`, the results for the inhibition in assay [1] and in assay [2] were 62% and 44%, respectively.
For `CO[C@H]1O[C@]23C=C[C@@H]4[C@@]1(CC[C@]1(C)[C@@H]([C@H](C)C[C@H](C=C(C)C)OC)CC[C@@]41C)[C@@H]2CC[C@H](O)C3(C)C` the same measures were 62% and 32%.
Turning to SODIUM ORTHOVANAD, in assay [3], the inhibition was found to be 44%.
For the compound `C[C@H](C/C=C/C(C)(C)O)[C@H]1CC[C@@]2(C)[C@@H]3[C@@H](O)C=C4[C@@H](CC[C@H](O)C4(C)C)[C@]3(C=O)CC[C@]12C`, the inhibition in assay [2] is -5%.
Consider `CO[C@@H]1O[C@]23C=C[C@@H]4[C@@]1(CC[C@]1(C)[C@@H]([C@H](C)C/C=C/C(C)(C)OC)CC[C@@]41C)[C@@H]2CC[C@H](O)C3(C)C`, for which the values for the inhibition in assay [1] and in assay [2] were 37% and 22%, respectively.
